Columns and labels:
WT RyR2 = target: T1, WT RyR2 (Mus musculus, UniProt E9Q401); experiment: Time-lapse [Ca2+]ER assay (RyR2 R-CEPIA1er assay) in HEK-293 cells; format: cell-based; settings: for RyR2 effect class: 25 µM in RyR2 R-CEPIA1er assay; for effect on [Ca^2+]ER (R-CEPIA1er fluorescence), in words: 25 µM, vs. 0.1 v/v% DMSO; for EC50: HEK-293 WT RyR2 R-CEPIA1er cells, range after the semicolon is not explained
T1 construct: expressed in transfected cells
Procedure: HEK-293 cells stably expressing R-CEPIA1er and WT RyR2 (generous gift from Takashi Murayama, Juntendo University School of Medicine, Tokyo) were cultured in Dulbecco's Modified Eagle medium (DMEM, Thermo Fisher Scientific, Darmstadt, Germany) supplemented with 10% fetal bovine serum (FBS, Thermo Fisher Scientific, Darmstadt, Germany), 0.9% Penicillin/Streptomycin (Merck KGaA, Darmstadt, Germany), 15ug/mL Blasticidine (Invivogen, Toulouse, France), 100 µg/mL Hygromycin (Merck KGaA, Darmstadt, Germany) and 400 µg/mL G418 (Thermo Fisher Scientific, Darmstadt, Germany) in a humidified 5% COz incubator at 37 °C. To induce the expression of WT RyR2 in the endoplasmic reticulum (ER), 2 µg/mL Doxycycline (Merck KGaA, Darmstadt, Germany) was added 24 h before experiments.
The fluorescent plate reader [Ca^2+]ER assay was performed according to the slightly modified protocol of Murayama & Kurebayashi [T. Murayama, N. Kurebayashi, Assays for Modulators of Ryanodine Receptor (RyR)/Ca(2+) Release Channel Activity for Drug Discovery for Skeletal Muscle and Heart Diseases. Curr. Protoc. […] After the cells were inducted with Doxycycline for 24 h, changes in ER calcium concentrations [Ca^2+]ER were measured on a multiwell plate reader TECAN Spark 20M at 37 °C. The 1000 × stock solutions of the test compounds were prepared in DMSO. Briefly, the culture medium was removed and 100 µl of Tyrode's solution containing 2 mM CaCl2 was added to the cells. The time courses were recorded in each well. Fluorescence was evoked by 560 nm excitation wavelength and collected in a bottom-read mode at 610 nm. Data was recorded every 10 s, exposure - 20 flashes, excitation bandwidth - 20 nm, emission bandwidth - 20 nm. 100 µl of 0 - 100 µM solution of test compound in Tyrode's solution containing 2 mM CaCh was injected in each well (speed 100 µl/s) at the 90 s time point. […] The 0.1 v/v% DMSO and 2 mM CaCh Tyrode's solution was used as a control.
The dose response curves were calculated using the software package GraphPad Prism version 8.3.1. (GraphPad Software, Inc.). All data are presented as mean ± S.D. in 3 independent experiments. Y=Bottom + (Top-Bottom)/(1+10^((LogEC50-X)*HillSlope)) was used where HillSlope describes the steepness of the curve, Top and Bottom are plateaus in the units of the Y axis.
The inventors measured changes in Ca^2+ levels in the endoplasmic reticulum (ER) of HEK-293 cells with inducible expression of wild-type RyR2 (WT RyR2) [T. Murayama, N. Kurebayashi, M. Ishigami-Yuasa, S. Mori, Y. Suzuki, R. Akima, H. Ogawa, J. Suzuki, K. Kanemaru, H. Oyamada, Y. Kiuchi, M. Iino, H. Kagechika, T. Sakurai, Efficient High-Throughput Screening by Endoplasmic Reticulum Ca(2+) Measurement to Identify Inhibitors of Ryanodine Receptor Ca(2+)-Release Channels. […] The cells additionally stably express the Ca^2+ fluorescence indicator R-CEPIA1er, which is a genetically encoded sensor protein of Ca^2+ in the ER ([Ca^2+]ER) [T. Murayama, N. Kurebayashi, Assays for Modulators of Ryanodine Receptor (RyR)/Ca(2+) Release Channel Activity for Drug Discovery for Skeletal Muscle and Heart Diseases. Curr. Protoc.
The fluorescence ratio F/F0 was calculated, where F0 - is the average fluorescence for the first 90 s, F - is the average fluorescence for the last 100 s, and normalized.

HL-1 cardiac cells = experiment: CytoTox-Glo cytotoxicity assay (cell viability); format: cell-based; settings: CytoTox-Glo assay in 100 µM solutions after 24 h incubation
Procedure: Cell viability was assessed using CytoTox-Glo™ Cytotoxicity Assay according to the manufacturing procedure (Promega GmbH). Briefly, HL-1 cardiac cells were cultivated for 24 h in black-walled, clear-bottom 96-well micro-plates (Corning) covered with fibronectin in DMEM, containing different concentrations of the tested compound (10,000 cells/well). Luminescence of a luminogenic peptide substrate was measured before and after addition of the lysis reagent (digitonin). The viable cell contribution was determined by a subtractive method. 0.1% DMSO treated cell were taken as a control.
The membrane permeability of the derivatives was determined using cell-free transport models (PermeaPad®, innoME GmbH), and permeability rates (Pe), which are a measure of how fast a compound can cross a membrane, were established (Table 1).

T1 sequence (E9Q401 whole entry): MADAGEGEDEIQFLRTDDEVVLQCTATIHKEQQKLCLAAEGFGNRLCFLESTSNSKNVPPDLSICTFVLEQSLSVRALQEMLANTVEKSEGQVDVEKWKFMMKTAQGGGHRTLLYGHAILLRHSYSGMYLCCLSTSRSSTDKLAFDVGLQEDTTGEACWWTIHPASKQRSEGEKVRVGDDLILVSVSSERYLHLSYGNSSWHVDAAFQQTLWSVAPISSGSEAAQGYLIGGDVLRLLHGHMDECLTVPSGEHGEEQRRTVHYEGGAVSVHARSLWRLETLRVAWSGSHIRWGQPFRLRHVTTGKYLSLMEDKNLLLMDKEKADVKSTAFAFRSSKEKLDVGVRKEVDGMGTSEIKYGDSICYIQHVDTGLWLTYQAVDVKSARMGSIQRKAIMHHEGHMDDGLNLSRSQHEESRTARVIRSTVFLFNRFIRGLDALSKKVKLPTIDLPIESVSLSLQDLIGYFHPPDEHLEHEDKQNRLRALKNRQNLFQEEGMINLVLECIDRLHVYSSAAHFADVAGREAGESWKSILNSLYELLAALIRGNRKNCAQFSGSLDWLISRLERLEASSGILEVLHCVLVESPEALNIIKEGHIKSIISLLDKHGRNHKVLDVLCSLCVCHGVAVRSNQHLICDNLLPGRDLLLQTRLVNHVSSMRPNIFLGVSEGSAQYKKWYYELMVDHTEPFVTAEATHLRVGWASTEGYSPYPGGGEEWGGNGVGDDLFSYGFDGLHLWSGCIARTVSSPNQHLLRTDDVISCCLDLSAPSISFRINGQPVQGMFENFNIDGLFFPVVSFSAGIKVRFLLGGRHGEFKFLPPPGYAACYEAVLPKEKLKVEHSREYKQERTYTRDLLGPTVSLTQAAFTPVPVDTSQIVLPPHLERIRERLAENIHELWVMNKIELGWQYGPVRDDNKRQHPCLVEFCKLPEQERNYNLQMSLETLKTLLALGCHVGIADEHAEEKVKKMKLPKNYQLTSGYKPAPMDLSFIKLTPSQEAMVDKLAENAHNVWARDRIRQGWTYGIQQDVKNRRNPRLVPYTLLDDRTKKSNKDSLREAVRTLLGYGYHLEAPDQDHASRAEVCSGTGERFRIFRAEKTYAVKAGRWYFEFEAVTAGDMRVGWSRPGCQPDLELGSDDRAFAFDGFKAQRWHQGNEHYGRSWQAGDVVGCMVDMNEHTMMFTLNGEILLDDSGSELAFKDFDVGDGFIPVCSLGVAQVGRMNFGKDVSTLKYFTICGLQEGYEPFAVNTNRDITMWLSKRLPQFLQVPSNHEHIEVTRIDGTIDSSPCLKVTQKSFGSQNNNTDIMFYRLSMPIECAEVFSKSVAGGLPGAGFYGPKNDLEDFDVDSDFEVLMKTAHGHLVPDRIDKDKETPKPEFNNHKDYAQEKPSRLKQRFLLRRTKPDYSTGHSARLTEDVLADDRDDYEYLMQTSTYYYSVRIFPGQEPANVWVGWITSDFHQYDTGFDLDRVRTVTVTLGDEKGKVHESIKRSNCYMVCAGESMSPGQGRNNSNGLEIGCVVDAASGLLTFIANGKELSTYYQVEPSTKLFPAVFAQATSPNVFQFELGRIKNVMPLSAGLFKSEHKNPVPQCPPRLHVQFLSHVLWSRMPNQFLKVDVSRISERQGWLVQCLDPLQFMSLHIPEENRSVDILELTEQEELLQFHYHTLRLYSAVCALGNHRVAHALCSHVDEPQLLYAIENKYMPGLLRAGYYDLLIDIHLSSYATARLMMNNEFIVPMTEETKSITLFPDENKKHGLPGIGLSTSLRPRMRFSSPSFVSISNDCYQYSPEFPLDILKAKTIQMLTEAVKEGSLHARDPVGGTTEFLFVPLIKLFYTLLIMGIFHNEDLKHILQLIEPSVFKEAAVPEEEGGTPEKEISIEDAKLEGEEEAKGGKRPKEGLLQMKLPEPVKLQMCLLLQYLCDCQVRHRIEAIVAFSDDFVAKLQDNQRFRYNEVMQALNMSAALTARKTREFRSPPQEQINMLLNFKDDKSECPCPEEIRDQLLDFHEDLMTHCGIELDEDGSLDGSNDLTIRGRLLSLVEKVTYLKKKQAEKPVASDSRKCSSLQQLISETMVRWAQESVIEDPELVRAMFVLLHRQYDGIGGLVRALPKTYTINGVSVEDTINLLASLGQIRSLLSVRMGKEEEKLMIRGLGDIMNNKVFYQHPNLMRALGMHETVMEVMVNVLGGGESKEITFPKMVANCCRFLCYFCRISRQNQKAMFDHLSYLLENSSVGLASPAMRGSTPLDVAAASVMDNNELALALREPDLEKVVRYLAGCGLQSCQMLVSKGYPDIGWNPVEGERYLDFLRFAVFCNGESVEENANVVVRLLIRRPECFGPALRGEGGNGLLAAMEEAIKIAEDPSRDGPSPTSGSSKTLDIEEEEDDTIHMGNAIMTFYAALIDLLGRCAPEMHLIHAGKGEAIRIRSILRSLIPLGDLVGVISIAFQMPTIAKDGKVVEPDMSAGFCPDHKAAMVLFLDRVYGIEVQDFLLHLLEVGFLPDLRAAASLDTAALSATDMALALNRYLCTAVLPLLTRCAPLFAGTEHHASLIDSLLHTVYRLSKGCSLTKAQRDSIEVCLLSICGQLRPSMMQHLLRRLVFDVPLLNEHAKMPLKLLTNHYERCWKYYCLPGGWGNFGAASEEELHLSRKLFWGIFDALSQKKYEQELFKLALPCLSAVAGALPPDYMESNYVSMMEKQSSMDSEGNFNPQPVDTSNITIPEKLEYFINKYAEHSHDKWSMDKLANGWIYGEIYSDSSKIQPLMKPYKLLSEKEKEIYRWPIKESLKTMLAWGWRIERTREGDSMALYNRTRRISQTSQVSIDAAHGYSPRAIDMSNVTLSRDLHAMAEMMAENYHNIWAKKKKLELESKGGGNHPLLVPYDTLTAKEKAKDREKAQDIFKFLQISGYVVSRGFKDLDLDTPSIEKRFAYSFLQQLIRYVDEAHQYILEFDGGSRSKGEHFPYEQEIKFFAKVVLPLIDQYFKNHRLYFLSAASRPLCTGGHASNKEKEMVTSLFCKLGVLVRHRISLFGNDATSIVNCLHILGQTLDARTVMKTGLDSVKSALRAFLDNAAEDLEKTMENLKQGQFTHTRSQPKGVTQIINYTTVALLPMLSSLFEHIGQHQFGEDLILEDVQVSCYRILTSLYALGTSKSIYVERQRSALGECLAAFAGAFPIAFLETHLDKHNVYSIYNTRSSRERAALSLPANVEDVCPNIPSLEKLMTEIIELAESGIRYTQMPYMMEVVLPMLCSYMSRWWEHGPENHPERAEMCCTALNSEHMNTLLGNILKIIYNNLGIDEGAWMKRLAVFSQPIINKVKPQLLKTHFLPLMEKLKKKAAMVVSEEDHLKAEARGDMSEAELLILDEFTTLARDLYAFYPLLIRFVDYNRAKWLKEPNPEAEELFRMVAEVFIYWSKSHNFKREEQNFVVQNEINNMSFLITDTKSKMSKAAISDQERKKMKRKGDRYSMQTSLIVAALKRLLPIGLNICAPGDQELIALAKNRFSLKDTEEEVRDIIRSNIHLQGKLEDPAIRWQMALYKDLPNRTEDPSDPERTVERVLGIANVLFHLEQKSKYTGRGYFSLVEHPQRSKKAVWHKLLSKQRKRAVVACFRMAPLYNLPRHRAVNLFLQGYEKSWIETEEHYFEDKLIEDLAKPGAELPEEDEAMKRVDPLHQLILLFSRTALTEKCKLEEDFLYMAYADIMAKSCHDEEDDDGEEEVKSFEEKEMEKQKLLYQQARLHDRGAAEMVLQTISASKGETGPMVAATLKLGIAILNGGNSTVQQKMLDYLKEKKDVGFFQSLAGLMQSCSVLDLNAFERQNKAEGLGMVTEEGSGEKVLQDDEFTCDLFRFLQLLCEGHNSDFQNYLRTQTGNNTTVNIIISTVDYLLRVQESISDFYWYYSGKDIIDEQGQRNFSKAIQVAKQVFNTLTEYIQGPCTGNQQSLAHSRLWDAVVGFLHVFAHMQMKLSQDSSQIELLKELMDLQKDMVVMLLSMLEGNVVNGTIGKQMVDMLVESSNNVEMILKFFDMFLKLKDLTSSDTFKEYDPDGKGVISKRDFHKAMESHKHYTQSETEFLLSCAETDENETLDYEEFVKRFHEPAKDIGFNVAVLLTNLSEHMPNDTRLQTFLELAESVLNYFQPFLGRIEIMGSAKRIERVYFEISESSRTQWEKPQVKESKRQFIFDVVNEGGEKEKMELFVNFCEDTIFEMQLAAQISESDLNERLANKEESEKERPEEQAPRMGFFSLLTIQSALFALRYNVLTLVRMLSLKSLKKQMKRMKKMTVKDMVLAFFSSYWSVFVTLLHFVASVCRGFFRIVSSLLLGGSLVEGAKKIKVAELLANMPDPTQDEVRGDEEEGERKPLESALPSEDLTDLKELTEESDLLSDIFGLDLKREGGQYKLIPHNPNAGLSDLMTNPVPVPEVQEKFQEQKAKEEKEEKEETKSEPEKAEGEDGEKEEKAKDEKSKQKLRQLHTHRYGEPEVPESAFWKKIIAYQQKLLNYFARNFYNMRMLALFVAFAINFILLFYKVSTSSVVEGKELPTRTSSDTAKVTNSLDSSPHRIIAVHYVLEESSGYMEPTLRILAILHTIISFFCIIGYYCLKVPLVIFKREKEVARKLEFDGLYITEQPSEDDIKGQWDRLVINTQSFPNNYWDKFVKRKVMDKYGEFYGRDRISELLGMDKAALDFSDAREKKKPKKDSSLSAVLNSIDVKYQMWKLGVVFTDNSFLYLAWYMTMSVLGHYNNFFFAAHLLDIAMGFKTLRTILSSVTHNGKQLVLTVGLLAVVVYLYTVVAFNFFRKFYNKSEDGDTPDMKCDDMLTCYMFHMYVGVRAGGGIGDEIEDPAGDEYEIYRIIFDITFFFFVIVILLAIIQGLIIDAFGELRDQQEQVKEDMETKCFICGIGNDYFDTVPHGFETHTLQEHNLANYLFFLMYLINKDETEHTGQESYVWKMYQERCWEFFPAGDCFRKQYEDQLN

Row | Compound | RyR2 effect class (WT RyR2) | effect on [Ca^2+]ER (R-CEPIA1er fluorescence), in words (WT RyR2) | Viability (HL-1 cardiac cells) [%] | EC50 (WT RyR2) [nM]
1 | COc1ccc2c(c1)CN(Cc1ccc(C(=O)O)cc1)CCS2 [ARM210, reference compound] | ++ | significantly increased [Ca^2+]ER | 90 | 
2 | COc1ccc2c(c1)CN(C(=O)C(=O)O)CCS2 [Compound S36, reference compound] | +++ | increase in R-CEPIA1er fluorescence | 94 | 
3 | COc1ccc(OCCCNCCCCC2(O)CC2)cc1 [Compound 13b, 1-(4-((3-(4-methoxyphenoxy)propyl)amino)butyl)cyclopropan-1-ol] | +++ |  | 100 | 81.5
4 | COc1ccc2c(c1)CN(CCCCC1(O)CC1)CCS2 [Compound 13d, 1-(4-(7-methoxy-2,3-dihydrobenzo[1,4-f]thiazepin-4(5H)-yl)butyl)cyclopropan-1-ol] | - | no significant RyR2-stabilizing effect | 95 | 
5 | COc1ccc(SCCCNCCCCC2(O)CC2)cc1 [Compound 13c, 1-(4-((3-((4-Methoxyphenyl)thio)propyl)amino)butyl)cyclopropan-1-ol] | ++ |  | 73 | 10.2
6 | COc1ccc2c(c1)CN(CCCCNCCCCC1(O)CC1)CCS2 [Compound 13a, 1-(4-((4-(7-Methoxy-2,3-dihydrobenzo[1,4-f]-thiazepin-4(5H)-yl)butyl)amino)butyl)cyclopropan-1-ol] | ++ |  | 84 | 
7 | COc1ccc2c(c1)CN(CCCCN(CCCCC1(O)CC1)CCCCC1(O)CC1)CCS2 [Compound 14a, 1,1'-(((4-(7-Methoxy-2,3-dihydrobenzo[1,4-f]thiazepin-4(5H)-yl)butyl)azanediyl)bis(butane-4,1-diyl))bis(cyclopropan-1-ol)] | +++ |  | 80 | 
8 | COc1ccc(SCCCN(CCCCC2(O)CC2)CCCCC2(O)CC2)cc1 [Compound 14c, 1,1'-(((3-((4-Methoxyphenyl)thio)propyl)azanediyl)bis(butane-4,1-diyl))bis(cyclopropan-1-ol)] | + |  | 90 | 18.6

From EP4548971A1, “1,4-BENZOTHIAZEPINES AND RELATED COMPOUNDS WITH CYCLOPROPANOL GROUPS AS MULTI-TARGETED DRUGS” (Georg-August-Universität Göttingen Stiftung Öffentlichen …, priority 2023, dated 2025)
